Experiments:
[1] = tested on: human OPN promoter (pOPN1-luc) in A549/OPNluc cells; assay: Luciferase assay: luciferase expression under control of OPN promoter; assay type: cell-based
Text: A reporter vector pOPN1-luc obtained by inserting a human OPN promoter sequence (−765 to 23) into the multiple cloning site of pGL-3 basic vector (Promega) expresses luciferase when transfected into animal cells. This pOPN1-luc was transfected into a human non-small cell lung cancer-derived cell line A549 together with pPUR (Clontech) that expresses a puromycin resistance gene (puromycin-N-acetyl-transferase gene), and cells that could grow in a puromycin-supplemented medium and expressed luciferase were selected. The selected cells were named A549/OPNluc cells and used for observation of luciferase expression inhibitory effect under control of OPN promoter, as described later.
A test compound was added to a culture liquid containing A549/OPNluc cells to observe its influence on the amount of luciferase expressed in the cells. Here, it can be considered that when the test compound has cytotoxity or cell growth-suppressing effect, the total expression level of luciferase is reduced due to a reduction in the number of living cells that depends on the concentration of the test compound, and therefore the luciferase expression inhibitory effect of the test compound under control of OPN promoter cannot be properly evaluated. For this reason, WST assay for quantification of cell proliferation ability or cell viability by colorimetric measurement was first performed to determine IC50 (concentration for 50% inhibition of cell growth) of the test compound for cell growth. Then, luciferase activity measurement was performed to determine EC50 (concentration for 50% inhibition of luciferase expression) of the test compound for luciferase expression under control of OPN promoter.
The same steps as in the above-described WST assay were performed in which only DMSO (control) or the diluted test compound (sample) solution was added in an amount of 0.5 μL to each well containing the cell suspension to achieve 200-fold dilution, and the solution in each well was mixed with a vortex mixer, and the 96-well plate was incubated in a CO2 incubator (at 37° C. and 5% CO2) for 48±4 hours.
A luciferase reagent was prepared by dissolving Luciferase Assay Substrate (hereinafter, referred to as “LAS”) supplied in Luciferase Assay Systems (Promega: Cat# E1500) with Luciferase Assay Buffer (LAB). 5× Cell Culture Lysis Reagent (hereinafter, referred to as “CCLR”) was diluted with water 5-fold to prepare 1×CCLR.
After the incubation for 48±4 hours, the medium in each well was completely removed, and 50 μL of 1×CCLR was dispensed into each well. The 96-well plate was allowed to stand at room temperature for 30 minutes, and then 1×CCLR in each well was used as an assay sample. The luciferase reagent of 100 μL was placed in a tube for chemiluminescence measurement, and 20 μL of the assay sample was added to the tube and mixed with the luciferase reagent to measure chemiluminescence (Relative Luminescence Intensity: RLU) using Tuner Design Luminometer 20/20 (Promega).
The RLU values of the control wells and the RLU values of the sample wells at each concentration were input into an Excel file, and the percentages of RLU values of the sample wells at each concentration with respect to the average of RLU values of the control wells were determined. From these values, a fitted curve was determined by the method of least squares to calculate EC50.

[2] = tested on: OPN production by human liver cancer-derived cell line HepG2; assay: OPN production by HepG2 cells (Human Osteopontin Immunoassay, per mg protein); assay type: cell-based; settings: 2-day culture; for suppression of OPN production vs control group: significance level less than 1%
Description: The confirmation test was performed in the following manner. The compound 3 wad added to a culture liquid containing cells of a human non-small cell lung cancer-derived cell line A549 or a human liver cancer-derived cell line HepG2, and the amount of OPN in culture supernatant after 2-day culture was measured using Human Osteopontin Immunoassay kit (R&D systems) and compared with the OPN amount of a compound 3-free group (control group).
The compound 3 has also cell growth inhibitory effect. Therefore, in order to properly evaluate the OPN production-suppressing effect of the compound 3, 1×CCLR used in luciferase assay was added to cells remaining in each well after removal of culture supernatant to prepare a cell lysate, and the amount of protein in the cell lysate was measured using BCA Protein Assay Kit (Thermo Scientific). The influence of addition of the compound 3 on the amount of OPN production was evaluated by comparison of the amount of OPN per milligram of protein.
First, A549 cells or HepG2 cells were suspended in DMEM medium containing 10% FCS and 1% P/S at 4×10^4 cells/mL to obtain a cell suspension, and 500 μL of the cell suspension was dispensed into each well of a 24-well plate. In order to perform the test in triplicate, 3 wells were prepared for a control group and 3 wells were prepared for each test compound-treated group at each concentration. The 24-well plate was incubated in a CO2 incubator (at 37° C. and 5% CO2) for 24±4 hours.
The 3.75 mmol/L compound 3 solution or the 7.5 mmol/L compound 3 solution was added in an amount of 2 μL to each well in which HepG2 cells were cultured. Only DMSO was added to each control well in an amount of 2 μL.
The 24-well plate was rocked back and forth and side to side to mix the solution in each well, and was then incubated in a CO2 incubator (at 37° C. and 5% CO2) for 48±4 hours. Then, the total amount of culture supernatant was transferred into a 1.5 mL tube, and 500 μL of D-PBS(−) was added to each well in which cells are remained. […]

CCCCCCCCCCCC(=O)[C@H]1C(=O)O[C@@H](C)C[C@@H]1C [Chemical formula 3]
EC50 value relative to respective IC50 value ([1]; EC50 luciferase assay vs IC50 WST assay): ½ | EC50 ([1]; Homo sapiens, 48±4 hours, read-out: EC50 (concentration for 50% inhibition of luciferase expression under control of OPN promoter)): 15.9 µM | suppression of OPN production vs control group ([2]; 15 μmol/L): significantly suppressed | amount of OPN produced relative to control group ([2]; 30 μmol/L): reduced to half or less | suppression of OPN production vs control group ([2]; 30 μmol/L): significantly suppressed
